Columns and labels:
[1] = Reconstitution time of lyophilized preparation (with vs without annealing step); type: physicochemical; conditions: for reconstitution time of lyophilized preparation: lyophilized preparation (20 mg/mL, pH-adjusting agent only) prepared with an annealing step vs without, water for injection 10 mL, moderate shaking, FIG. 8
Source text: After a drug solution had been prepared in a manner similar to that described above, the solution was charged into a container and frozen under the conditions shown in Table 2, and then was lyophilized in a manner similar to that described above, followed by measurement of the time required for reconstitution (hereinafter the time may be referred to as a “reconstitution time”). The state observed about 30 seconds after injection of a liquid for reconstitution is shown in FIG. 2 (method without annealing step) or FIG. 3 (method with an annealing step).
Lyophilization was performed under varied annealing conditions (e.g., temperature and maintenance time for an annealing step) as shown in Table 3. […] Reconstitution time was measured through the following procedure: after completion of lyophilization, water for injection was added to a vial in an amount equal to that of the liquid charged into the vial, followed by moderate shaking, and the time required for complete dissolution of the content of the vial was measured.
Water for injection (10 mL) was added to a vial, followed by moderate shaking, and the time required for complete dissolution of the content of the vial was measured.

[2] = DSC of frozen product of compound-containing aqueous solution (glass transition temperature); type: physicochemical; conditions: frozen product of Table 1 formulation
Source text: The temperature of the annealing step may be determined on the basis of the glass transition temperature of the frozen product of the compound (1)-containing aqueous solution obtained through the freezing step. Specifically, the temperature of the frozen product is elevated to a level equal to or higher than the glass transition temperature thereof, and then maintained for a predetermined period of time. The glass transition temperature of the frozen product may be determined through, for example, DSC of the frozen product, and this DSC may be performed according to a generally employed method. The glass transition temperature of frozen products is varied in accordance with, for example, the compositional proportions of ingredients of starting solutions for the products. Therefore, different frozen products are subjected to DSC for determination of the glass transition temperature thereof.
For example, in the DSC chart of the frozen product containing compound (I) and pH-adjusting agents having a formulation shown in Table 1, the peak corresponding to the glass transition temperature of the frozen product rises at about −14.0° C. (FIG. 5). […] Therefore, when the annealing step is performed at a temperature equal to or higher than this temperature, the annealing effect is expected to be attained.

[3] = test system: drug-resistant Gram-positive bacteria such as methicillin-resistant staphylococci, penicillin-resistant pneumococci, and vancomycin-resistant enterococci; conditions: cited from earlier work
[4] = test system: drug-resistant bacteria; conditions: cited from earlier work

| Structure (SMILES) | reconstitution time of lyophilized preparation [1] | further results |
| --- | --- | --- |
| COc1c(N2CC[C@@H](C3(N)CC3)C2)ccc2c(=O)c(C(=O)O)cn([C@@H]3C[C@@H]3F)c12 [compound (I), 7-[3-(R)-(1-aminocyclopropyl)pyrrolidin-1-yl]-1-[2-(S)-fluoro-1-(R)-cyclopropyl]-1,4-dihydro-8-methoxy-4-oxoquinoline-3-carboxylic acid] | – | temperature at which the glass transition peak starts (DSC) [2]: about −17 °C; reconstituting property of lyophilized cake ([1]; Table 1 formulation, frozen product maintained between glass transition temperature and a temperature at which it does not thaw): improved reconstituting property; antibacterial activity [3]: high antibacterial activity |
| COc1c(N2CC3(CC3)[C@](C)(N)C2)c(F)cc2c(=O)c(C(=O)O)cn([C@@H]3C[C@@H]3F)c12 [compound (II), (+)-7-[(7S)-7-amino-7-methyl-5-azaspiro[2.4]heptan-5-yl]-6-fluoro-1-[(1R,2S)-2-fluoro-1-cyclopropyl]-1,4-dihydro-8-methoxy-4-oxo-3-quinolinecarboxylic acid hemihydrate] | reduced reconstitution time | antibacterial activity [4]: excellent antibacterial activity |

The next lines start with results.

| reconstitution time of lyophilized preparation [1] | Structure (SMILES) | further results |
| --- | --- | --- |
| reduced reconstitution time | CC1COc2c(N3CCN(C)CC3)c(F)cc3c(=O)c(C(=O)O)cn1c23 (racemic) [ofloxacin, (±)-9-fluoro-2,3-dihydro-3-methyl-10-(4-methyl-1-piperazinyl)-7-oxo-7H-pyrido[1,2,3-de][1,4]benzoxazine-6-carboxylic acid] | – |
| reduced reconstitution time | C[C@H]1COc2c(N3CCN(C)CC3)c(F)cc3c(=O)c(C(=O)O)cn1c23 [levofloxacin, (−)-(S)-9-fluoro-2,3-dihydro-3-methyl-10-(4-methyl-1-piperazinyl)-7-oxo-7H-pyrido[1,2,3-de][1,4]benzoxazine-6-carboxylic acid hemihydrate] | – |
| reduced reconstitution time | N[C@@H]1CN(c2c(F)cc3c(=O)c(C(=O)O)cn([C@@H]4C[C@@H]4F)c3c2Cl)CC12CC2 [sitafloxacin, (−)-7-[(7S)-7-amino-5-azaspiro[2.4]heptan-5-yl]-8-chloro-6-fluoro-1-[(1R,2S)-2-fluoro-1-cyclopropyl]-1,4-dihydro-4-oxo-3-quinolinecarboxylic acid sesquihydrate] | – |
